Reference: PubChem BioAssay AID1918944 (Molecular Pharmacology Branch, DTP, NCI, 2023)
“And” between values parts separate entries of the source, which are not always exact repeats. Equal entries are not always repeated. The source made the active and inactive calls. How the source made its calls: active means viability on the fitted dose curve at most 10% of control; inactive means the rest.

System: 786-0 complex spheroid viability
Assay: Anticancer human tumor 786-0 cell line growth inhibition;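 further: spheroids exposed to agents for seven days before readout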
Settings: for viability, T/C: stronger effect = lower value
In short: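 Multicellular complex spheroids of tumor cells with human endothelial cells (HUVEC) and mesenchymal stem cells; the LSD1 inhibitor iadademstat was combined with standard-of-care or investigational agents. Top concentration at or near clinical Cmax, half-log dilutions; final DMSO ≤0.25%.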

[1] = curve of first compound, second compound 0.1 µM
[2] = curve of first compound, second compound 0.316 µM
[3] = curve of first compound, second compound 1 µM
[4] = curve of first compound, second compound 3.16 µM
[5] = curve of first compound, second compound 10 µM
[6] = second compound 0.1 µM, first compound 0.00949 µM
[7] = second compound 0.1 µM, first compound 0.03 µM
[8] = second compound 0.1 µM, first compound 0.0949 µM
[9] = second compound 0.1 µM, first compound 0.3 µM
[10] = second compound 0.316 µM, first compound 0.00949 µM
[11] = second compound 0.316 µM, first compound 0.03 µM
[12] = second compound 0.316 µM, first compound 0.0949 µM
[13] = second compound 0.316 µM, first compound 0.3 µM
[14] = second compound 1 µM, first compound 0.00949 µM
[15] = second compound 1 µM, first compound 0.03 µM
[16] = second compound 1 µM, first compound 0.0949 µM
[17] = second compound 1 µM, first compound 0.3 µM
[18] = second compound 3.16 µM, first compound 0.00949 µM
[19] = second compound 3.16 µM, first compound 0.03 µM
[20] = second compound 3.16 µM, first compound 0.0949 µM
[21] = second compound 3.16 µM, first compound 0.3 µM
[22] = second compound 10 µM, first compound 0.00949 µM
[23] = second compound 10 µM, first compound 0.03 µM
[24] = second compound 10 µM, first compound 0.0949 µM
[25] = second compound 10 µM, first compound 0.3 µM

Nc1ccn(C2OC(CO)C(O)C2(F)F)c(=O)n1 (configuration not stated) + NC1CC1c1ccc(-c2cccc(O)c2)cc1
IC50 [1]: < 0.949 nM
IC50 [2]: < 0.949 nM
IC50 [3]: < 0.949 nM
IC50 [4]: < 0.949 nM
IC50 [5]: < 0.949 nM
viability, T/C (second compound 0.1 µM, first compound 0.000949 µM): 10.3%
viability, T/C (second compound 0.1 µM, first compound 0.003 µM): 2.49%
outcome [6]: active
viability, T/C [7]: 2.95%
viability, T/C [8]: 3.87%
viability, T/C [9]: 4.12%
viability, T/C (second compound 0.316 µM, first compound 0.000949 µM): 9.54%
viability, T/C (second compound 0.316 µM, first compound 0.003 µM): 2.66%
outcome [10]: active
viability, T/C [11]: 2.74%
viability, T/C [12]: 4.19%
viability, T/C [13]: 3.51%
viability, T/C (second compound 1 µM, first compound 0.000949 µM): 7.42%
viability, T/C (second compound 1 µM, first compound 0.003 µM): 2.53%
outcome [14]: active
viability, T/C [15]: 2.64%
viability, T/C [16]: 3.23%
viability, T/C [17]: 4%
viability, T/C (second compound 3.16 µM, first compound 0.000949 µM): 9.36%
viability, T/C (second compound 3.16 µM, first compound 0.003 µM): 2.32%
outcome [18]: active
viability, T/C [19]: 2.75%
viability, T/C [20]: 3.87%
viability, T/C [21]: 6.57%
viability, T/C (second compound 10 µM, first compound 0.000949 µM): 7.48%
viability, T/C (second compound 10 µM, first compound 0.003 µM): 3.61%
outcome [22]: active
viability, T/C [23]: 2.69%
viability, T/C [24]: 3.6%
viability, T/C [25]: 4.45%

NS(=O)(=O)OCC1CC(n2ccc3c(NC4CCc5ccccc54)ncnc32)CC1O (configuration not stated) + NC1CC1c1ccc(-c2cccc(O)c2)cc1
IC50 [1]: 190 nM
IC50 [2]: 178 nM
IC50 [3]: 168 nM
IC50 [4]: 175 nM
IC50 [5]: 165 nM
viability, T/C [6]: 113%
viability, T/C [7]: 96.6%
viability, T/C [8]: 94%
viability, T/C [9]: 21%
viability, T/C (second compound 0.1 µM, first compound 0.949 µM): 9.54%
viability, T/C (second compound 0.1 µM, first compound 3 µM): 13.7%
viability, T/C [10]: 104%
viability, T/C [11]: 92.9%
viability, T/C [12]: 88.5%
viability, T/C [13]: 18.2%
viability, T/C (second compound 0.316 µM, first compound 0.949 µM): 9.34%
viability, T/C (second compound 0.316 µM, first compound 3 µM): 14.3%
viability, T/C [14]: 117%
viability, T/C [15]: 98.6%
viability, T/C [16]: 79.1%
viability, T/C [17]: 20.3%
viability, T/C (second compound 1 µM, first compound 0.949 µM): 9.8%
viability, T/C (second compound 1 µM, first compound 3 µM): 15.8%
viability, T/C [18]: 110%
viability, T/C [19]: 88.1%
viability, T/C [20]: 83.4%
viability, T/C [21]: 20.8%
viability, T/C (second compound 3.16 µM, first compound 0.949 µM): 10.9%
viability, T/C (second compound 3.16 µM, first compound 3 µM): 16.5%
viability, T/C [22]: 99.9%
viability, T/C [23]: 89%
viability, T/C [24]: 76.6%
viability, T/C [25]: 21.3%
viability, T/C (second compound 10 µM, first compound 0.949 µM): 13%
viability, T/C (second compound 10 µM, first compound 3 µM): 15.4%

CC[C@@]1(O)C(=O)OCc2c1cc1n(c2=O)Cc2cc3c(CN(C)C)c(O)ccc3nc2-1 + NC1CC1c1ccc(-c2cccc(O)c2)cc1
IC50 [1]: 5.02 nM
IC50 [2]: 4.87 nM
IC50 [3]: 4.86 nM
IC50 [4]: 4.67 nM
IC50 [5]: 4.02 nM
viability, T/C (second compound 0.1 µM, first compound 0.000316 µM): 112%
viability, T/C (second compound 0.1 µM, first compound 0.001 µM): 109%
viability, T/C (second compound 0.1 µM, first compound 0.00316 µM): 74.6%
viability, T/C (second compound 0.1 µM, first compound 0.01 µM): 13.2%
viability, T/C (second compound 0.1 µM, first compound 0.0316 µM): 6.23%
viability, T/C (second compound 0.1 µM, first compound 0.1 µM): 2.94%
viability, T/C (second compound 0.316 µM, first compound 0.000316 µM): 109%
viability, T/C (second compound 0.316 µM, first compound 0.001 µM): 105%
viability, T/C (second compound 0.316 µM, first compound 0.00316 µM): 73.6%
viability, T/C (second compound 0.316 µM, first compound 0.01 µM): 10.7%
viability, T/C (second compound 0.316 µM, first compound 0.0316 µM): 4.65%
viability, T/C (second compound 0.316 µM, first compound 0.1 µM): 3.46%
viability, T/C (second compound 1 µM, first compound 0.000316 µM): 119%
viability, T/C (second compound 1 µM, first compound 0.001 µM): 109%
viability, T/C (second compound 1 µM, first compound 0.00316 µM): 73.4%
viability, T/C (second compound 1 µM, first compound 0.01 µM): 10.8%
viability, T/C (second compound 1 µM, first compound 0.0316 µM): 4.54%
viability, T/C (second compound 1 µM, first compound 0.1 µM): 2.99%
viability, T/C (second compound 3.16 µM, first compound 0.000316 µM): 107%
viability, T/C (second compound 3.16 µM, first compound 0.001 µM): 107%
viability, T/C (second compound 3.16 µM, first compound 0.00316 µM): 70%
viability, T/C (second compound 3.16 µM, first compound 0.01 µM): 10.8%
viability, T/C (second compound 3.16 µM, first compound 0.0316 µM): 5.39%
viability, T/C (second compound 3.16 µM, first compound 0.1 µM): 2.22%
viability, T/C (second compound 10 µM, first compound 0.000316 µM): 104%
viability, T/C (second compound 10 µM, first compound 0.001 µM): 109%
viability, T/C (second compound 10 µM, first compound 0.00316 µM): 61%
viability, T/C (second compound 10 µM, first compound 0.01 µM): 8.93%
viability, T/C (second compound 10 µM, first compound 0.0316 µM): 3.25%
viability, T/C (second compound 10 µM, first compound 0.1 µM): 2.9%

CC(C)c1c(-c2ccccc2)nc2c(C#N)c[nH]n2c1=O
viability, T/C (compound 0.0316 µM): 105% and 103%
viability, T/C (compound 0.1 µM): 108% and 101%
viability, T/C (compound 0.316 µM): 99% and 105%
viability, T/C (compound 1 µM): 102% and 105%
viability, T/C (compound 3.16 µM): 104% and 110%
viability, T/C (compound 10 µM): 102% and 103%
IC50 (curve of compound): > 10000 nM
